The record followed here is patent US12116358B2, “Substituted indoles and methods of use thereof” (EPIZYME, INC., priority 2018, dated 2024).

Some results are limits rather than exact numbers.

The test system of one assay is H3K36me3 in A549 cells. Put plainly: In-Cell Western (ICW) assay of SETD2 inhibitors (A549 assay). In kind it is cell-based, human. The following applies: A549 cells; read-out: SETD2 A549. A digest of the protocol:
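H3K36me3 In-Cell Western: cells exposed to compound for 3 days at 4,000 cells/well, 37° C. DRAQ5 (1:1000) marked cell number, with 700/800-channel Licor read-out.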
As to `Cc1ccc(F)c2cc(C(=O)Nc3cccc(N4CCC(C)(N(C)C)CC4)c3)[nH]c12` [compound 222], the IC50 came out at 500 nM.

Regarding `Cc1ccc(F)c2cc(C(=O)Nc3cccc(N4CCN(C(=O)CN(C)C)CC4)c3)[nH]c12` [compound 208], the IC50 amounted to 400 nM.

With `Cc1ccc(F)c2cc(C(=O)NC3CCCC(N4CCn5ncnc5C4)C3)[nH]c12` (centres unmarked) [compound 868], the IC50 worked out at 200 nM.

For `CCC(=O)N1CCN(C2CCCC(NC(=O)c3cc4c(F)ccc(C)c4[nH]3)C2)CC1C(F)(F)F` (centres unmarked) [compound 1167], the IC50 is 60 nM.

Turning to `CC(=O)N1CC2CCC1CN2C1CCCC(NC(=O)c2cc3c(F)ccc(C)c3[nH]2)C1` (centres unmarked) [compound 961], the IC50 was determined as 400 nM.

In the case of `CC(=O)N1C2CCC1CN(C1CCCC(NC(=O)c3cc4c(F)ccc(C)c4[nH]3)C1)C2` (centres unmarked) [compound 927], the IC50 is more than 2000 nM.

`Cc1cccnc1C(CCC(=O)Nc1cccnc1)NC(=O)c1cc2cccc(C)c2[nH]1` (centres unmarked) [compound 523]: the IC50 is 20800 nM.

With `Cc1ccc(F)c2cc(C(=O)Nc3cccc(N4CCC(OCCN)CC4)c3)[nH]c12` [compound 240], the IC50 is 600 nM.

In the case of `COC(=O)CC(NC(=O)c1cc2cccc(C)c2[nH]1)c1ccc(C#N)cc1` (centres unmarked) [compound 527], the IC50 came out at 24200 nM.

Consider `COCCC(=O)N1CCN(c2cccc(NC(=O)c3cc4c(F)ccc(C)c4[nH]3)c2)CC1` [compound 75], for which the IC50 came to 200 nM.

As to `Cc1cccc2cc(C(=O)Nc3ccc4nc(NC5CCNCC5)ncc4c3)[nH]c12` [compound 473], the IC50 turned out to be 8800 nM.

Regarding `Cc1cccnc1C(CCC(=O)NC1CCOC1)NC(=O)c1cc2cccc(C)c2[nH]1` (centres unmarked) [compound 571], the IC50 was more than 25000 nM.

`Cc1ccc(F)c2cc(C(=O)Nc3cccc(-c4noc(=O)[nH]4)c3)[nH]c12` [compound 545]: the IC50 was more than 25000 nM.

`COc1cccc(CNCC(O)COc2cnc(C(NC(=O)c3cc4cccc(C)c4[nH]3)C3CC3)c(C)c2)c1` (centres unmarked) [compound 461]: the IC50 worked out at 6300 nM.

On to `Cc1ccc(F)c2cc(C(=O)Nc3cccc(-c4cc(N)on4)c3)[nH]c12` [compound 502], for which the IC50 came to 14700 nM.

Consider `Cc1cccnc1C(CCC(=O)NC1CCC(N)CC1)NC(=O)c1cc2cccc(C)c2[nH]1` (centres unmarked) [compound 579], for which the IC50 was more than 25000 nM.

In the case of `CC(=O)N1CCN(c2ccccc2CNC(=O)c2cc3cccc(C)c3[nH]2)CC1` [compound 499], the IC50 came to 13900 nM.

Take `Cc1ccc(F)c2cc(C(=O)Nc3cccc(N4CCC(CO)(CO)CC4)c3)[nH]c12` [compound 103]: the IC50 worked out at 200 nM.

Take `Cc1ccc(F)c2cc(C(=O)Nc3cc(F)cc(N4C[C@@H]5CCN(C)[C@@H]5C4)c3)[nH]c12` [compound 105]: the IC50 stood at 200 nM.

In the case of `Cc1ccc(F)c2cc(C(=O)Nc3cncc(N4CCN(C)CC4)c3)[nH]c12` [compound 410], the IC50 was found to be 3000 nM.

Consider `Cc1ccc(F)c2cc(C(=O)Nc3cccc(-c4nnc(CO)s4)c3)[nH]c12` [compound 107], for which the IC50 amounted to 200 nM.

Turning to `Cc1cccc2cc(C(=O)Nc3cccc(N4CCC(NC(=O)CN)CC4)c3)[nH]c12` [compound 439], the IC50 worked out at 5000 nM.

Staying with this assay, now noted: Homo sapiens; A549 cells; read-out: SETD2 A549.
On to `Cc1ccc(F)c2cc(C(=O)Nc3cccc(N4CC5(CCNCC5)C4)c3)[nH]c12` [compound 184], for which the IC50 was 400 nM.

For `Cc1ccc(F)c2cc(C(=O)Nc3cccc(N4CCN(S(C)(=O)=O)CC4)c3)[nH]c12` [compound 176], the IC50 is 300 nM.

Turning to `CN/C(=C\[N+](=O)[O-])N1CCN([C@H]2CCC[C@@H](NC(=O)c3cc4c(F)ccc(C)c4[nH]3)C2)CC1` [compound 1115], the IC50 came to 200 nM.

A further assay has as its target T1, SETD2(1434-1711) (Homo sapiens, UniProt Q9BYW2).
T1 construct: SETD2 (1434-1711) Assay; catalogue N/A
T1 sequence (Q9BYW2 1434-1711): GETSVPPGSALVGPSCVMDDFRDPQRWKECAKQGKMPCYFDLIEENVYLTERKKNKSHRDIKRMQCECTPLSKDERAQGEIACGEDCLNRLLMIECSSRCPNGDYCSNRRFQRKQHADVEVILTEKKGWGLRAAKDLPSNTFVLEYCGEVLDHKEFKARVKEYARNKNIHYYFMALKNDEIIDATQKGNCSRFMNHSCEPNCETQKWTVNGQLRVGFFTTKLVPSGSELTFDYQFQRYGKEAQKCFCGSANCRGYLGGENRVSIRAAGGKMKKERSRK
Put plainly: SETD2 (1434-1711) assay. The following applies: read-out: SETD2 (1434-1711). The format is biochemical.
For `Cc1ccc(F)c2cc(C(=O)Nc3cccc(N4CC5(CCNCC5)C4)c3)[nH]c12` [compound 184], the IC50 came to 10 nM.

`Cc1ccc(F)c2cc(C(=O)Nc3cccc(N4CCN(S(C)(=O)=O)CC4)c3)[nH]c12` [compound 176]: the IC50 was 100 nM.

As for `Cc1ccc(F)c2cc(C(=O)Nc3cccc(N4CCC(C)(N(C)C)CC4)c3)[nH]c12` [compound 222], the IC50 was found to be 20 nM.

Consider `CN/C(=C\[N+](=O)[O-])N1CCN([C@H]2CCC[C@@H](NC(=O)c3cc4c(F)ccc(C)c4[nH]3)C2)CC1` [compound 1115], for which the IC50 came to 30 nM.

Turning to `Cc1ccc(F)c2cc(C(=O)Nc3cccc(N4CCN(C(=O)CN(C)C)CC4)c3)[nH]c12` [compound 208], the IC50 was determined as 60 nM.

For `Cc1ccc(F)c2cc(C(=O)NC3CCCC(N4CCn5ncnc5C4)C3)[nH]c12` (centres unmarked) [compound 868], the IC50 came out at 100 nM.

As to `CCC(=O)N1CCN(C2CCCC(NC(=O)c3cc4c(F)ccc(C)c4[nH]3)C2)CC1C(F)(F)F` (centres unmarked) [compound 1167], the IC50 was found to be 20 nM.

For `CC(=O)N1CC2CCC1CN2C1CCCC(NC(=O)c2cc3c(F)ccc(C)c3[nH]2)C1` (centres unmarked) [compound 961], the IC50 was 30 nM.

Turning to `CC(=O)N1C2CCC1CN(C1CCCC(NC(=O)c3cc4c(F)ccc(C)c4[nH]3)C1)C2` (centres unmarked) [compound 927], the IC50 worked out at 1700 nM.

Turning to `Cc1cccnc1C(CCC(=O)Nc1cccnc1)NC(=O)c1cc2cccc(C)c2[nH]1` (centres unmarked) [compound 523], the IC50 stood at 8800 nM.

As to `Cc1ccc(F)c2cc(C(=O)Nc3cccc(N4CCC(OCCN)CC4)c3)[nH]c12` [compound 240], the IC50 came out at 20 nM.

Turning to `COC(=O)CC(NC(=O)c1cc2cccc(C)c2[nH]1)c1ccc(C#N)cc1` (centres unmarked) [compound 527], the IC50 amounted to 14700 nM.

In the case of `COCCC(=O)N1CCN(c2cccc(NC(=O)c3cc4c(F)ccc(C)c4[nH]3)c2)CC1` [compound 75], the IC50 was determined as 60 nM.

`Cc1cccc2cc(C(=O)Nc3ccc4nc(NC5CCNCC5)ncc4c3)[nH]c12` [compound 473]: the IC50 came to 200 nM.

Turning to `Cc1cccnc1C(CCC(=O)NC1CCOC1)NC(=O)c1cc2cccc(C)c2[nH]1` (centres unmarked) [compound 571], the IC50 is 15900 nM.

`Cc1ccc(F)c2cc(C(=O)Nc3cccc(-c4noc(=O)[nH]4)c3)[nH]c12` [compound 545]: the IC50 was 3100 nM.

In the case of `COc1cccc(CNCC(O)COc2cnc(C(NC(=O)c3cc4cccc(C)c4[nH]3)C3CC3)c(C)c2)c1` (centres unmarked) [compound 461], the IC50 worked out at 500 nM.

In the case of `Cc1ccc(F)c2cc(C(=O)Nc3cccc(-c4cc(N)on4)c3)[nH]c12` [compound 502], the IC50 worked out at 500 nM.

For `Cc1cccnc1C(CCC(=O)NC1CCC(N)CC1)NC(=O)c1cc2cccc(C)c2[nH]1` (centres unmarked) [compound 579], the IC50 amounted to 23000 nM.

Regarding `CC(=O)N1CCN(c2ccccc2CNC(=O)c2cc3cccc(C)c3[nH]2)CC1` [compound 499], the IC50 is 9100 nM.

Regarding `Cc1ccc(F)c2cc(C(=O)Nc3cccc(N4CCC(CO)(CO)CC4)c3)[nH]c12` [compound 103], the IC50 was found to be 30 nM.

Take `Cc1ccc(F)c2cc(C(=O)Nc3cc(F)cc(N4C[C@@H]5CCN(C)[C@@H]5C4)c3)[nH]c12` [compound 105]: the IC50 was 8 nM.

With `Cc1ccc(F)c2cc(C(=O)Nc3cncc(N4CCN(C)CC4)c3)[nH]c12` [compound 410], the IC50 is 700 nM.

As for `Cc1ccc(F)c2cc(C(=O)Nc3cccc(-c4nnc(CO)s4)c3)[nH]c12` [compound 107], the IC50 amounted to 40 nM.

With `Cc1cccc2cc(C(=O)Nc3cccc(N4CCC(NC(=O)CN)CC4)c3)[nH]c12` [compound 439], the IC50 was determined as 200 nM.
